Results from patent US4888353A, “Carboxamides useful as antiemetic or antipsychotic agents” (Erbamont, Inc., priority 1986, dated 1989).
Where two headings read alike, the source gives them in different places.

Tests used:
[1] = tested on: apomorphine induced climbing behavior; assay: Antipsychotic screen: apomorphine induced climbing behavior; format: in vivo; conditions: mouse, apomorphine 1 mg/kg, observed 20 minutes after; for ED50: 20 min, read-out: Approx. 50% ED, apomorphine climbing
Protocol: The effect of each of the benzofurancarboxamides shown in Table VIII below on apomorphine induced climbing behavior was tested under the conditions described by Costetin et al. "Rapid and Dissociated Changes in Sensitivities of Different Dopamine Receptors in Mouse Brain," Nature, 257, 405 (1975). Each mouse was administered from 0.1 to 50 mg/kg of test compound and antagonism was observed 20 minutes after injection of 1 mg/kg apomorphine induced climbing behavior.

apomorphine emesis = assay: Antiemetic screen: Apomorphine Emesis (Dog); format: in vivo, Beagle dogs; conditions: s.c., apomorphine HCl 0.1 mg/kg sc one hour after test compound, 2 dogs; for ED100: Canis lupus familiaris, sc, 1 h, read-out: 100% Effect Dosage level (dosage at which both animals were protected from apomorphine emesis)
Protocol: Each of the test compounds shown in Table VIII was administered subcutaneously to two Beagle dogs at dosage levels of 0.05, 0.1, 1.0 and 10.0 mg/kg. One hour following administration of the test compound, each animal received 0.1 mg/kg, sc, of apomorphine HCl. Apomorphine consistently evokes an immediate emetic response through direct dopaminergic interaction at the medullary chemoreceptor trigger zone (CTZ). Antiemetic compounds which act at the CTZ and/or the midbrain vomiting center will block this effect. If both animals receiving a particular treatment are protected, (i.e., no emetic response within one hour after apomorphine), the test compound is considered active.

dopamine receptors = conditions: cited from earlier work
[2] = ip, i.p. (marked in cell; head prints s.c.)
[3] = oral (marked in cell; head prints s.c.)

| Structure (SMILES) | ED50 [1, 2] | ED100 (apomorphine emesis) | ED50 [1, 3] | also measured |
| --- | --- | --- | --- | --- |
| CCN1CCCC1CNC(=O)c1cc(Br)cc2ccoc12 (centres unmarked) | ~0.5 mg/kg | 0.1 mg/kg | – | – |
| O=C(NC1CCN(Cc2ccccc2)C1)c1cc(Br)cc2ccoc12 (centres unmarked) | ~30 mg/kg | – | – | – |
| CCN1CCCC1CNC(=O)c1cccc2cc(C)oc12 (centres unmarked) [drawing 97 R = CH3] | ~3 mg/kg | 10 mg/kg | – | – |
| CCN1CCCC1CNC(=O)c1cccc2ccoc12 (centres unmarked) [drawing 97 R = H] | ~12 mg/kg | 10 mg/kg | – | – |
| CCN1CCCC1CNC(=O)c1cc(Br)cc2c1OCC2 (centres unmarked) [drawing 98 R = Br] | – | 1 mg/kg | ~15 mg/kg | – |
| CCN1CCCC1CNC(=O)c1cc(C)cc2c1OCC2.Cl (centres unmarked) [drawing 98 R = CH3, N-(1-ethyl-2-pyrrolidinylmethyl)-5-methyl-2,3-dihydrobenzo[b]furan-7-carboxamide hydrochloride] | ~3 mg/kg | 0.1 mg/kg | – | – |
| CCN1CCCC1CNC(=O)c1cc(Cl)cc2c1OCC2 (centres unmarked) [drawing 98 R = Cl] | ~5 mg/kg | 1 mg/kg | ~15 mg/kg | – |
| CCN1CCCC1CNC(=O)c1cccc2c1OCC2 (centres unmarked) [drawing 98 R = H] | ~20 mg/kg | 1 mg/kg | – | – |
| CCN1CCCC1CNC(=O)c1cc(N)cc2c1OCC2.O=C(O)/C=C/C(=O)O (centres unmarked) [drawing 98 R = NH2, 5-amino-N-(1-ethyl-2-pyrrolidinylmethyl)-2,3-dihydrobenzo[b]furan-7-carboxamide fumarate] | ~25 mg/kg | – | ~20 mg/kg | – |
| CCN1CCCC1CNC(=O)c1cc(NC(C)=O)cc2c1OCC2.O=C(O)/C=C/C(=O)O (centres unmarked) [drawing 98 R = NHCOCH3, 5-acetamido-N-(1-ethyl-2-pyrrolidinylmethyl)-2,3-dihydrobenzo[b]furan-7-carboxamide fumarate] | ~50 mg/kg | – | – | – |
| CCN1CCCC1CNC(=O)c1cc(NS(C)(=O)=O)cc2c1OCC2 (centres unmarked) [drawing 98 R = NHSO2 CH3, N-(1-ethyl-2-pyrrolidinylmethyl)-5-methanesulfonamido-2,3-dihydrobenzo[b]furan-7-carboxamide] | – | 1 mg/kg | ~50 mg/kg | – |
| CCN1CCCC1CNC(=O)c1cc([N+](=O)[O-])cc2c1OCC2 (centres unmarked) [drawing 98 R = NO2, N-(1-ethyl-2-pyrrolidinylmethyl)-5-nitro-2,3-dihydrobenzo[b]furan-7-carboxamide] | ~20 mg/kg | 1 mg/kg | ~15 mg/kg | – |
| CCN1CCCC1CNC(=O)c1cc(Br)cc2c1OC(C)C2 (centres unmarked) [drawing 99 R = Br R' = H] | ~2 mg/kg | 0.005 mg/kg | – | – |
| CCN1CCCC1CNC(=O)c1cc(Cl)c(Cl)c2c1OC(C)C2 (centres unmarked) [drawing 99 R = Cl R' = Cl] | – | – | ~10 mg/kg | – |
| CCN1CCCC1CNC(=O)c1ccc(Cl)c2c1OC(C)C2.O=C(O)/C=C/C(=O)O (centres unmarked) [drawing 99 R = H R' = Cl, 4-chloro-N-(1-ethyl-2-pyrrolidinylmethyl)-2-methyl-2,3-dihydrobenzo[b]furan-7-carboxamide fumarate] | ~25 mg/kg | – | ~40 mg/kg | – |
| CCN1CCCC1CNC(=O)c1cccc2c1OC(C)C2 (centres unmarked) [drawing 99 R = H R' = H] | ~20 mg/kg | – | – | 100% Effect Dosage level (dosage at which both animals were protected from apomorphine emesis) (apomorphine emesis): 0.05 mg/kg |
| CCN1CCCC1CNC(=O)c1ccc(OC)c2c1OC(C)C2 (centres unmarked) [drawing 99 R = H R' = OCH3] | – | – | ~25 mg/kg | – |
| CCN1CCCC1CNC(=O)c1cc(OC)cc2c1OC(C)C2 (centres unmarked) [drawing 99 R = OCH3 R' = H] | ~25 mg/kg | 0.1 mg/kg | ~1 mg/kg | – |
| CCN1CCCC1CNC(=O)c1cc(Cl)cc2ccoc12.O=C(O)/C=C/C(=O)O (centres unmarked) [drawing 105 R = Cl R' = H, 5-chloro-N-(1-ethyl-2-pyrrolidinylmethyl)benzo[b]furan-7-carboxamide fumarate] | – | 0.1 mg/kg | ~5 mg/kg | – |
| CCN1CCCC1CNC(=O)c1cc(F)cc2ccoc12 (centres unmarked) [drawing 105 R = F R' = H] | – | 1 mg/kg | – | – |
| CCN1CCCC1CNC(=O)c1cccc2c1OC(C)C2 (centres unmarked) [drawing 109 R1 = H,R2 = CH3] | – | – | – | Approx. 50% ED, apomorphine climbing ([1]; i.p. (marked in cell; head prints s.c.)): ~20 mg/kg; 100% Effect Dosage level (dosage at which both animals were protected from apomorphine emesis) (apomorphine emesis): 0.85 mg/kg |
| CCN1CCCC1CNC(=O)c1cccc2c1OC(C)(C)C2 (centres unmarked) [drawing 109 R1 = R2 = CH3] | ~100 mg/kg | 10 mg/kg | – | – |
| CCN(CC)CCNC(=O)c1cc(Cl)c(N)cc1OC [metoclopramide, 4-amino-5-chloro-N-[(2-diethylamino)ethyl]-2-methoxybenzamide] | – | – | – | release of prolactin (side effect) (dopamine receptors): increase in the release of prolactin |
| CCN1CCCC1CNC(=O)c1cc(S(N)(=O)=O)ccc1OC (centres unmarked) [sulpiride, 2-methoxy-N-(1-ethyl-2-pyrrolidinylmethyl)-5-sulfamoyl benzamide] | – | – | – | release of prolactin (side effect) (dopamine receptors): increase in the release of prolactin |
